In ChEMBL document CHEMBL5107958, “Phosphoramidate Prodrugs Continue to Deliver, The Journey of Remdesivir (GS-5734) from RSV to SARS-CoV-2” (ACS Med Chem Lett, 2022):

Key:
[1] = Prodrug conversion in cynomolgus monkey assessed as AUC (0 to last) of parent nucleoside compound at 5 mg/kg, po measured for 0.25 to 4 hrs post-administration; type: ADME, organism-based, Macaca fascicularis; set-up: time lower 0.25 hrs, dose 5 mg/kg, time upper 4 hrs, route po; conditions: in vivo
[2] = Prodrug conversion in dog assessed as AUC (0 to last) of parent nucleoside compound at 5 mg/kg, po via gavage measured for 0.25 to 24 hrs post-administration; type: ADME, organism-based, Canis lupus familiaris; set-up: time upper 24 hrs, time lower 0.25 hrs, dose 5 mg/kg, route po; conditions: in vivo
Hepatitis C virus [3] = test: Antiviral activity against HCV assessed as reduction in viral replication by measuring monophosphate prodrug metabolite; type: functional, organism-based, Hepacivirus hominis
[4] = AUC (0 to infinity) in dog at 5 mg/kg, po via gavage measured for 0.25 to 24 hrs post-administration; type: ADME, organism-based, Canis lupus familiaris; set-up: dose 5 mg/kg, time upper 24 hrs, time lower 0.25 hrs, route po; conditions: in vivo
Hepatitis C virus [5] = test: Antiviral activity against HCV assessed as reduction in viral replication by measuring parent nucleoside compound; type: functional, organism-based, Hepacivirus hominis
[6] = AUC (0 to infinity) in cynomolgus monkey at 5 mg/kg, po measured for 0.25 to 4 hrs post-administration; type: ADME, organism-based, Macaca fascicularis; set-up: time upper 4 hrs, dose 5 mg/kg, time lower 0.25 hrs, route po; conditions: in vivo
[7] = Half life in Beagle dog at 0.5 mg/kg, iv measured for 0.08 to 24 hrs post-dose; type: ADME, organism-based, Canis lupus familiaris; conditions: in vivo, time 0.08-24 hrs
[8] = AUC (0 to infinity) in Beagle dog at 0.5 mg/kg, iv measured for 0.08 to 24 hrs post-dose; type: ADME, organism-based, Canis lupus familiaris; set-up: dose 0.5 mg/kg, time upper 24 hrs, time lower 0.08 hrs, route iv; conditions: in vivo
[9] = AUC (0 to infinity) in Beagle dog at 3 mg/kg, po via gavage measured for 0.08 to 24 hrs post-dose; type: ADME, organism-based, Canis lupus familiaris; set-up: time lower 0.08 hrs, dose 3 mg/kg, time upper 24 hrs, route po; conditions: in vivo
[10] = Oral bioavailability in Beagle dog at 3 mg/kg administered via gavage measured for 0.08 to 24 hrs post-dose; type: ADME, organism-based, Canis lupus familiaris; conditions: in vivo, time 0.08-24 hrs
[11] = Volume of distribution at steady state in Beagle dog at 0.5 mg/kg, iv measured for 0.08 to 24 hrs post-dose; type: ADME, organism-based, Canis lupus familiaris; conditions: in vivo, time 0.08-24 hrs, read-out: Vdss
[12] = Prodrug conversion in overnight fasted dog assessed as AUC (0 to last) of parent nucleoside compound at 100 mg/kg, po measured upto 24 hrs; type: ADME, organism-based, Canis lupus familiaris; set-up: dose 100 mg/kg, time < 24 hrs, route po; conditions: in vivo
[13] = AUC (0 to infinity) in overnight fasted dog at 100 mg/kg, po measured upto 24 hrs; type: ADME, organism-based, Canis lupus familiaris; set-up: dose 100 mg/kg, time < 24 hrs, route po; conditions: in vivo
[14] = Prodrug conversion in cynomolgus monkey assessed as AUC (0 to last) of parent nucleoside compound at 30 mg/kg, po; type: ADME, organism-based, Macaca fascicularis; set-up: time 0 - last, dose 30 mg/kg, route po; conditions: in vivo
[15] = AUC (0 to infinity) in cynomolgus monkey at 30 mg/kg, po; type: ADME, organism-based, Macaca fascicularis; set-up: time infinity, dose 30 mg/kg, route po; conditions: in vivo
[16] = Prodrug conversion in cynomolgus monkey lung assessed as triphosphate metabolite formation at 30 mg/kg, po measured after 24 hrs; type: ADME, organism-based, Macaca fascicularis; conditions: in vivo
SARS-CoV-2 [17] = test: Antiviral activity against SARS-CoV-2 infected in African green monkey Vero E6 cells assessed as reduction in viral replication; type: functional, organism-based; conditions: Severe acute respiratory syndrome coronavirus 2, Vero C1008
[18] = tested on: Middle East respiratory syndrome-related coronavirus; test: Antiviral activity against MERS-CoV infected in HAE cells assessed as reduction in viral replication at MOI of 0.5 incubated for 3 hrs followed by virus removal measured after 48 hrs by Hoechst 33258 staining based assay; type: functional, organism-based
Marburgvirus = test: Antiviral activity against MARV Rec. Bat371-GFP infected in human Huh-7 cells assessed as reduction in viral replication incubated for 48 to 144 hrs by fluorescence based assay; type: functional, organism-based; conditions: Orthomarburgvirus
SARS-CoV-2 [19] = test: Antiviral activity against SARS-CoV-2 infected in human Huh-7 cells assessed as reduction in virus-induced cytopathic effect at MOI of 0.0037 measured after 4 days by MTS assay; type: functional, organism-based; conditions: Severe acute respiratory syndrome coronavirus 2, Huh-7, 96 h
Nipah virus [20] = test: Antiviral activity against Nipah B2004 infected in human NCI-H358 cells assessed as reduction in viral replication incubated for 48 to 144 hrs by reporter virus assay; type: functional, organism-based; conditions: Henipavirus nipahense
SARS-CoV-2 [21] = test: Antiviral activity against SARS-CoV-2 infected in human Caco-2 cells assessed as reduction in viral replication at MOI of 0.01 measured after 72 hrs by qRT-PCR analysis; type: functional, organism-based; conditions: Severe acute respiratory syndrome coronavirus 2, Caco-2, 72 h
Ebolavirus [22] = test: Antiviral activity against Ebola infected in human macrophages assessed as reduction in viral replication; type: functional, organism-based; conditions: Orthoebolavirus, Macrophage
Measles morbillivirus [23] = test: Antiviral activity against Measles Rec.rMVEZGFP(3) infected in human HeLa cells assessed as reduction in viral replication incubated for 48 to 144 hrs by fluorescence based assay; type: functional, organism-based
SARS-CoV-2 [24] = test: Antiviral activity against SARS-CoV-2 infected in human Calu-3 2B4 cells assessed as reduction in viral replication at MOI of 0.01 preincubated for 2 hrs followed by viral infection for 30 mins and subsequent virus removal and addition of medium containing compound measured after 72 hrs by RT-qPCR analysis; type: functional, organism-based; conditions: Severe acute respiratory syndrome coronavirus 2, Calu-3 2B4
Nipah virus [25] = test: Antiviral activity against Nipah M1999 infected in human HeLa cells assessed as reduction in viral replication incubated for 48 to 144 hrs by reporter virus assay; type: functional, organism-based; conditions: Henipavirus nipahense
Ebolavirus [26] = test: Antiviral activity against Ebola infected in human HeLa cells assessed as reduction in viral replication; type: functional, organism-based; conditions: Orthoebolavirus
Measles morbillivirus [27] = test: Antiviral activity against Measles virus infected in HMVEC cells assessed as reduction in viral replication; type: functional, organism-based
SARS-CoV-2 [28] = test: Antiviral activity against SARS-CoV-2 infected in human A549 cells expressing hACE2 assessed as reduction in viral replication at MOI of 0.025 incubated for 48 hrs by luciferase based assay; type: functional, organism-based; conditions: Severe acute respiratory syndrome coronavirus 2, A549, 48 h
SARS-CoV-2 [29] = test: Antiviral activity against SARS-CoV-2 infected in human PSC-derived lung epithelial cells assessed as reduction in viral replication; type: functional, organism-based; conditions: Severe acute respiratory syndrome coronavirus 2, Epithelial cell
SARS-CoV-2 [30] = test: Antiviral activity against SARS-CoV-2 infected in human Calu-3 cells assessed as reduction in viral replication at MOI of 0.01 measured after 72 hrs by qRT-PCR analysis; type: functional, organism-based; conditions: Severe acute respiratory syndrome coronavirus 2, Calu-3, 72 h
SARS-CoV = test: Antiviral activity against SARS-CoV infected in HAE cells assessed as reduction in viral replication at MOI of 0.5 preincubated for 3 hrs followed by virus removal measured after 48 hrs by Hoechst 33258 staining based assay; type: functional, organism-based; conditions: Severe acute respiratory syndrome-related coronavirus
Hepatitis C virus [31] = test: Antiviral activity against HCV infected in human Huh-7 cells expressing Ces1 assessed as reduction in viral replication by measuring monophosphate prodrug metabolite; type: functional, organism-based, Hepacivirus hominis

## CC(C)OC(=O)[C@H](C)N[P@](=O)(OC[C@H]1O[C@@H](n2ccc(=O)[nH]c2=O)[C@@](C)(F)[C@@H]1O)Oc1ccccc1
[1]
  AUClast: 0.12 µM·h
[2]
  AUClast: 27 µM·h
Hepatitis C virus [3]
  EC50: 420 nM
[4]
  AUC(0-inf): 0.78 µM·h
Hepatitis C virus [5]
  EC50: > 50000 nM
[6]
  AUC(0-inf): 0.16 µM·h

## CC(C)OC(=O)[C@H](C)N[P@](=O)(OC[C@H]1O[C@@](C#N)(c2cnc3c(N)ncnn23)[C@](C)(O)[C@@H]1OC(=O)C(C)C)Oc1ccccc1
Hepatitis C virus [3]
  EC50: 460 nM
Hepatitis C virus [5]
  EC50: > 89000 nM

## CCOC(=O)[C@H](C)N[P@@]1(=O)OC[C@H]2O[C@@H](n3cnc4c(OCC)nc(N)nc43)[C@](C)(F)[C@@H]2O1
[7]
  half-life: 18 min
[8]
  AUC(0-inf): 0.61 µM·h
[9]
  AUC(0-inf): 1.6 µM·h
[10]
  bioavailability: 44%
[11]
  Vd: 0.5 L/kg

## COC(=O)[C@H](C)NP(=O)(OC[C@@H]1C=C[C@H](n2cc(C)c(=O)[nH]c2=O)O1)Oc1ccc(Br)cc1 (stereo not given in full)
[12]
  AUClast: 262 µM·h
[13]
  AUC(0-inf): 23.1 µM·h

## CNc1nc(N)nc2c1ncn2[C@@H]1O[C@H](COP(=O)(N[C@@H](C)C(=O)OC(C)C)Oc2ccccc2)[C@@H](O)[C@@]1(C)F (stereo not given in full) [BEMNIFOSBUVIR]
Hepatitis C virus [3]
  EC50: 13 nM
Hepatitis C virus [5]
  EC50: 69000 nM

## CNc1nc(N)nc2c1ncn2[C@@H]1O[C@H](CO[P@@](=O)(N[C@@H](C)C(=O)OC(C)C)Oc2ccccc2)[C@@H](O)[C@@]1(C)F [BEMNIFOSBUVIR]
[14]
  AUClast: 1.56 µM·h
[15]
  AUC(0-inf): 0.44 µM·h
[16]
  Drug metabolism: 0.14 nmol/g

## COc1nc(N)nc2c1ncn2[C@@H]1O[C@H](COP(=O)(N[C@@H](C)C(=O)OCC(C)(C)C)Oc2cccc3ccccc23)[C@@H](O)[C@@]1(C)O (stereo not given in full) [BMS-986094]
[15]
  AUC(0-inf): 0.026 µM·h
Hepatitis C virus [3]
  EC50: 35 nM
Hepatitis C virus [5]
  EC50: 3500 nM

## N#C[C@@]1(c2ccc3c(N)ncnn23)O[C@H](CO)[C@@H](O)[C@H]1O [GS-441524]
SARS-CoV-2 [17]
  EC50: 470 nM
[18]
  EC50: 860 nM
Marburgvirus
  EC50: 1900 nM
SARS-CoV-2 [19]
  EC50: 1100 nM
Nipah virus [20]
  EC50: 2460 nM
SARS-CoV-2 [21]
  EC50: 80 nM
Ebolavirus [22]
  EC50: > 20000 nM
Measles morbillivirus [23]
  EC50: 1000 nM
SARS-CoV-2 [24]
  EC50: 620 nM
Nipah virus [25]
  EC50: 2120 nM
Ebolavirus [26]
  EC50: > 20000 nM
Measles morbillivirus [27]
  EC50: 770 nM
SARS-CoV-2 [28]
  EC50: 869 nM
SARS-CoV-2 [29]
  EC50: 740 nM
SARS-CoV-2 [30]
  EC50: 250 nM
SARS-CoV
  EC50: 180 nM

## CC(C)OC(=O)[C@@H](C)N[P@@](=O)(OC[C@H]1O[C@@H](n2ccc(=O)[nH]c2=O)[C@](C)(Cl)[C@@H]1O)Oc1ccccc1 [UPRIFOSBUVIR]
Hepatitis C virus [31]
  EC50: 320 nM
